# In US20230039887A1, “COMPOSITIONS FOR TOPICAL TREATMENT OF RADIATION DERMATITIS” (priority 2021, published 2023):
# Key:
# Type in all cases: cell-based
# [1] = test system: cells; assay: MTT assay of cell viability after 24 hours topical application; parameters: cell viability: dose or concentration left out as unconfirmed
# Method: Test materials were applied topically for 24 hours and an MTT assay was used to check the viability of cells.
# The relative results are provided in the following Table A, with the untreated group defining 100% viability, and shown in FIG. 1. * indicates p≤0.05 and ** indicates p≤0.01 statistical significance after performing unpaired t-test.
# [2] = test system: APOB; assay: qPCR gene expression in tissues treated topically, APOB; conditions: topical, without radiation exposure
# Method: (§1) Next, changes in gene expression were measured in tissues treated topically with the formulations (without radiation exposure) using qPCR. […] Five genes were examined: APOB, CSF2, IL24, MT1F, and MT1G.
# (§2) Statistical significance was determined using unpaired t-test, P<0.05, N=3, and are indicated in bold. The results are provided in Table B in both linear fold change values (FC) and in percent change.
# [3] = test system: CSF2; assay: qPCR gene expression in tissues treated topically, CSF2; conditions: topical, without radiation exposure
# Method: as §1, §2
# [4] = test system: IL24; assay: qPCR gene expression in tissues treated topically, IL24; conditions: topical, without radiation exposure
# Method: (§3) Next, changes in gene expression were measured in tissues treated topically with the formulations (without radiation exposure) using qPCR. This provides evidence that the CBD is being absorbed by the tissues. Five genes were examined: APOB, CSF2, IL24, MT1F, and MT1G.
# (§4) Statistical significance was determined using unpaired t-test, P<0.05, N=3, and are indicated in bold. The results are provided in Table B in both linear fold change values (FC) and in percent change. It is noted that changes in gene expression in general were only seen in the treatments where CBD was used.
# [5] = test system: MT1F; assay: qPCR gene expression in tissues treated topically, MT1F; conditions: topical, without radiation exposure
# Method: as §3, §4
# [6] = test system: MT1G; assay: qPCR gene expression in tissues treated topically, MT1G; conditions: topical, without radiation exposure
# Method: as §3, §4
compound,measurement,setting,value
"C=C(C)[C@@H]1CCC(C)=C[C@H]1c1c(O)cc(CCCCC)cc1O [CBD, 2-[(1R,6R)-6-Isopropenyl-3-methylcyclohex-2-en-1-yl]-5-pentylbenzene-1,3-diol]",cell viability,[1],significant increase
same,"APOB gene expression, % Δ (percent change)",[2]; 1 mg/mL CBD,23%
same,"APOB gene expression, FC (linear fold change)",[2]; 1 mg/mL CBD,1.23
same,"APOB gene expression, % Δ (percent change)",[2]; 10 mg/mL CBD,0%
same,"APOB gene expression, FC (linear fold change)",[2]; 10 mg/mL CBD,1.00
same,"APOB gene expression, % Δ (percent change)",[2]; 30 mg/mL CBD,−16%
same,"APOB gene expression, FC (linear fold change)",[2]; 30 mg/mL CBD,−1.19
same,"APOB gene expression, % Δ (percent change)",[2]; 60 mg/mL CBD,51%
same,"APOB gene expression, % Δ (percent change)",[2]; 120 mg/mL CBD,−9%
same,"APOB gene expression, FC (linear fold change)",[2]; 120 mg/mL CBD,−1.10
same,"APOB gene expression, % Δ (percent change)",[2]; 250 mg/mL CBD,−60%
same,"APOB gene expression, FC (linear fold change)",[2]; 250 mg/mL CBD,−2.48
same,"APOB gene expression, % Δ (percent change)",[2]; 500 mg/mL CBD,−96%
same,"APOB gene expression, FC (linear fold change)",[2]; 500 mg/mL CBD,−22.22
same,"APOB gene expression, % Δ (percent change)",[2]; 750 mg/mL CBD,−96%
same,"APOB gene expression, FC (linear fold change)",[2]; 750 mg/mL CBD,−25.64
same,"CSF2 gene expression, % Δ (percent change)",[3]; 1 mg/mL CBD,117%
same,"CSF2 gene expression, % Δ (percent change)",[3]; 10 mg/mL CBD,118%
same,"CSF2 gene expression, % Δ (percent change)",[3]; 30 mg/mL CBD,−19%
same,"CSF2 gene expression, % Δ (percent change)",[3]; 60 mg/mL CBD,186%
same,"CSF2 gene expression, % Δ (percent change)",[3]; 120 mg/mL CBD,448%
same,"CSF2 gene expression, % Δ (percent change)",[3]; 250 mg/mL CBD,763%
same,"CSF2 gene expression, % Δ (percent change)",[3]; 500 mg/mL CBD,−30%
same,"CSF2 gene expression, % Δ (percent change)",[3]; 750 mg/mL CBD,93%
same,"IL24 gene expression, % Δ (percent change)",[4]; 1 mg/mL CBD,55%
same,"IL24 gene expression, % Δ (percent change)",[4]; 10 mg/mL CBD,48%
same,"IL24 gene expression, % Δ (percent change)",[4]; 30 mg/mL CBD,−70%
same,"IL24 gene expression, % Δ (percent change)",[4]; 60 mg/mL CBD,−11%
same,"IL24 gene expression, % Δ (percent change)",[4]; 120 mg/mL CBD,63%
same,"IL24 gene expression, % Δ (percent change)",[4]; 250 mg/mL CBD,59%
same,"IL24 gene expression, % Δ (percent change)",[4]; 500 mg/mL CBD,−6%
same,"IL24 gene expression, % Δ (percent change)",[4]; 750 mg/mL CBD,54%
same,"MT1F gene expression, % Δ (percent change)",[5]; 1 mg/mL CBD,147%
same,"MT1F gene expression, % Δ (percent change)",[5]; 10 mg/mL CBD,40%
same,"MT1F gene expression, % Δ (percent change)",[5]; 30 mg/mL CBD,−65%
same,"MT1F gene expression, % Δ (percent change)",[5]; 60 mg/mL CBD,134%
same,"MT1F gene expression, % Δ (percent change)",[5]; 120 mg/mL CBD,602%
same,"MT1F gene expression, % Δ (percent change)",[5]; 250 mg/mL CBD,2163%
same,"MT1F gene expression, % Δ (percent change)",[5]; 500 mg/mL CBD,3963%
same,"MT1F gene expression, % Δ (percent change)",[5]; 750 mg/mL CBD,2971%
same,"MT1G gene expression, % Δ (percent change)",[6]; 1 mg/mL CBD,−41%
same,"MT1G gene expression, % Δ (percent change)",[6]; 10 mg/mL CBD,−4%
same,"MT1G gene expression, % Δ (percent change)",[6]; 30 mg/mL CBD,92%
same,"MT1G gene expression, % Δ (percent change)",[6]; 60 mg/mL CBD,2526%
same,"MT1G gene expression, % Δ (percent change)",[6]; 120 mg/mL CBD,5186%
same,"MT1G gene expression, % Δ (percent change)",[6]; 250 mg/mL CBD,13439%
same,"MT1G gene expression, % Δ (percent change)",[6]; 500 mg/mL CBD,33439%
same,"MT1G gene expression, % Δ (percent change)",[6]; 750 mg/mL CBD,23223%
Triton-X,Relative Viability,"[1]; positive control, topical 24 hours, untreated = 100%",3%
